According to US10131679B2, “Substituted dihydropyrrolopyrazole compound” (UBE INDUSTRIES, LTD., priority 2014, dated 2018):

Columns and labels:
[1] = system: IL-2 production in human peripheral blood mononuclear cell (PBMC); experiment: Human PBMC CD3/CD28-induced IL-2 production inhibition test; format: cell-based; details: 48 h, CD3/CD28 stimulation, incubation for 2 days, ELISA
Source text: Human Peripheral Blood Mononuclear Cell (PBMC) CD3/CD28-Induced IL-2 Production Inhibition Test
PBMC was separated and collected by using Ficoll-Paque (17-1440-02 manufactured by GE Healthcare Japan Corp.) from blood collected from healthy human adult in the presence of heparin. RPMI1640 medium (manufactured by GIBCO/Thermo Fisher Scientific, Inc., REF. 11875) containing 10% FBS (manufactured by GIBCO/Thermo Fisher Scientific, Inc. REF. 10082) and containing a test compound dissolved in DMSO and 2 μg/mL anti-hCD28 (manufactured by R&D Systems, Inc., Cat. No. MAB342) was added at 100 μL/well to T cell Activation Plate Anti-Human CD3 96-well plate (manufactured by Corning Inc., REF. 354725), and subsequently, a PBMC suspension adjusted such that the number of cells was 2×10^6 cells/mL was added at 100 μL/well (final DMSO concentration: 0.1%). A RPMI1640 medium containing 10% FBS and containing 0.1% DMSO and 2 μg/mL anti-hCD28 was similarly added to wells not supplemented with the test compound. After incubation for 2 days in a carbon dioxide incubator, the culture supernatant was collected. The collected culture supernatant was stored at −20° C. until IL-2 content measurement.
In the measurement of IL-2 content in the culture supernatant, a sandwich ELISA kit Quantikine Human IL-2 (manufactured by R&D Systems, Inc., Cat. No. S2050) was used. The IL-2 content of each sample was calculated from the calibration curve of Standard IL-2 included in the kit. When the amount of IL-2 produced by CD3/CD28 stimulation in the case of the addition of only DMSO was defined as 100%, the rate of inhibition of IL-2 production at each concentration of the test compound was calculated. A test compound concentration inhibiting 50% of IL-2 production was calculated as an IC50 value (nM) from the concentration of the added test compound and the rate of inhibition of IL-2 production by the test compound by using EXSUS (version 8.0.0 or version 8.0.1, manufactured by CAC Exicare Corp.).

[2] = system: IL-17 production in human PBMC-derived T cells; experiment: Human PBMC various-stimulant cocktail-induced IL-17 production inhibition test; format: cell-based; details: 120 h; human T-cell suspension from PBMC, cocktail of various stimulants, incubation for 5 days, ELISA
Source text: Human PBMC Various-Stimulant Cocktail-Induced IL-17 Production Inhibition Test
PBMC was separated and collected by using Ficoll-Paque (17-1440-02 manufactured by GE Healthcare Japan Corp.) from blood collected from healthy human adult in the presence of heparin. The collected PBMC was further cultured in a flask for a certain time, and then, non-adherent cells in the supernatant were collected and used as a T-cell suspension. RPMI1640 medium (manufactured by GIBCO/Thermo Fisher Scientific, Inc., REF. 11875), which is containing 10% FBS (manufactured by GIBCO/Thermo Fisher Scientific, Inc., REF. 10082), 1% penicillin/streptomycin/amphotericin B (manufactured by GIBCO/Thermo Fisher Scientific, Inc., REF. 15240-096), 1% nonessential amino acids (manufactured by GIBCO/Thermo Fisher Scientific, Inc., REF. 11140-050), and 1% pyruvic acid (manufactured by GIBCO/Thermo Fisher Scientific, Inc., REF. 11140) and containing a test compound dissolved in DMSO, 2 μg/mL (final concentration) CD28 antibody (manufactured by BioLegend, Inc., Cat. No. 302914), 10 μg/mL (final concentration) human IFN-γ antibody (manufactured by BD Biosciences, Cat. No. 554698), 10 μg/mL (final concentration) human IL-4 antibody (manufactured by BD Biosciences, Cat. No. 554481), 20 ng/mL (final concentration) human IL-6 (manufactured by BioLegend, Inc., Cat. No. 570802), 10 ng/mL (final concentration) human IL-23 (manufactured by BioLegend, Inc., Cat. No. 574102), 10 ng/mL (final concentration) human IL-1(3 (manufactured by PeproTech Inc., Cat. No. 200-01B), and 10 ng/mL (final concentration) human TGF-13 (manufactured by BioLegend, Inc., Cat. No. 580702), was added at 100 μL/well to T cell Activation Plate Anti-Human CD3 96-well plate (manufactured by Corning Inc., REF. 354725). Subsequently, 100 μL of a T-cell suspension adjusted to 2×10^5 cells/mL was added to each well (final DMSO concentration: 0.1%). Only DMSO was added to wells in the absence of the test compound. After incubation for 5 days in a carbon dioxide incubator, the culture supernatant was collected and stored at −20° C. until IL-17 content measurement.
In the IL-17 content measurement in the culture supernatant, a sandwich ELISA kit (Quantikine Human IL-17, manufactured by R&D Systems, Inc.) was used. The IL-17 content of each sample was calculated from the calibration curve of Standard IL-17 included in the kit. When the amount of IL-17 produced by the cocktail of various stimulants in the case of the addition of only DMSO was defined as 100%, the rate of inhibition of IL-17 production at each concentration of the test compound was calculated. The concentration of the test compound necessary for inhibiting 50% of IL-17 production (IC50 value) was calculated from the concentration of the added test compound and the rate of inhibition of IL-17 production by the test compound by using EXSUS (version 8.0.0 or version 8.0.1, manufactured by CAC Exicare Corp.).

| Structure (SMILES) | IC50 [1] [nM] | IC50 [2] [nM] |
| --- | --- | --- |
| CC1(C)c2[nH]nc(NC(=O)C3([Si](C)(C)C)CCC3)c2CN1C(=O)N[C@H](CO)c1ccccc1 [IV-114, (S)—N-(2-Hydroxy-1-phenylethyl)-6,6-dimethyl-3-[1-(trimethylsilyl)cyclobutanecarboxamido]-4,6-dihydropyrrolo[3,4-c]pyrazole-5(1H)-carboxamide] | ≤ 50 |  |
| CC(C)(CO)C(NC(=O)N1Cc2c(NC(=O)C3([Si](C)(C)C)CCC3)n[nH]c2C1(C)C)c1ccccc1 (single isomer, unassigned; (-)) [IV-673, (−)-N-(3-Hydroxy-2,2-dimethyl-1-phenylpropyl)-6,6-dimethyl-3-[1-(trimethylsilyl)cyclobutanecarboxamido]-4,6-dihydropyrrolo[3,4-c]pyrazole-5(1H)-carboxamide] |  | ≤ 50 |
| CO[C@@H](C(=O)N1Cc2c(NC(=O)C3([Si](C)(C)C)CCC3)n[nH]c2C1(C)C)c1ccccc1F [IV-1383, (R)—N-{5-[2-(2-Fluorophenyl)-2-methoxyacetyl]-6,6-dimethyl-1,4,5,6-tetrahydropyrrolo[3,4-c]pyrazol-3-yl}-1-(trimethylsilyl)cyclobutanecarboxamide] |  | ≤ 50 |
| CC1(C)c2[nH]nc(NC(=O)C3([Si](C)(C)C)CCC3)c2CN1C(=O)N[C@H](CCO)c1ccccc1 [IV-227, (R)—N-(3-Hydroxy-1-phenylpropyl)-6,6-dimethyl-3-[1-(trimethylsilyl)cyclobutanecarboxamido]-4,6-dihydropyrrolo[3,4-c]pyrazole-5(1H)-carboxamide] | ≤ 50 |  |
| COC(C(=O)N1Cc2c(NC(=O)C3([Si](C)(C)C)CCC3)n[nH]c2C1(C)C)c1cccs1 (centres unmarked) [IV-1546, N-{5-[2-Methoxy-2-(thiophen-2-yl)acetyl]-6,6-dimethyl-1,4,5,6-tetrahydropyrrolo[3,4-c]pyrazol-3-yl}-1-(trimethylsilyl)cyclobutanecarboxamide] |  | ≤ 50 |
| CC1(C)c2[nH]nc(NC(=O)C3([Si](C)(C)C)CC3)c2CN1C(=O)N[C@H](CO)c1ccccc1 [III-114, (S)—N-(2-Hydroxy-1-phenylethyl)-6,6-dimethyl-3-[1-(trimethylsilyl)cyclopropanecarboxamido]-4,6-dihydropyrrolo[3,4-c]pyrazole-5(1H)-carboxamide] | ≤ 50 |  |
| CC(C)(CO)C(NC(=O)N1Cc2c(NC(=O)C3([Si](C)(C)C)CCC3)n[nH]c2C1(C)C)c1ccc(F)cc1 (centres unmarked) [IV-946, N-[1-(4-Fluorophenyl)-3-hydroxy-2,2-dimethylpropyl]-6,6-dimethyl-3-[1-(trimethylsilyl)cyclobutanecarboxamido]-4,6-dihydropyrrolo[3,4-c]pyrazole-5(1H)-carboxamide] |  | ≤ 50 |
| CC1(C)c2[nH]nc(NC(=O)C3([Si](C)(C)C)CCC3)c2CN1C(=O)[C@H](OC(F)(F)F)c1ccccc1 [IV-1184, (R)—N-{6,6-Dimethyl-5-[2-phenyl-2-(trifluoromethoxy)acetyl]-1,4,5,6-tetrahydropyrrolo[3,4-c]pyrazol-3-yl}-1-(trimethylsilyl)cyclobutanecarboxamide] |  | ≤ 50 |
| CC1(C)c2[nH]nc(NC(=O)C3([Si](C)(C)C)CCC3)c2CN1C(=O)N[C@H](CCCO)c1ccccc1 [IV-283, (R)—N-(4-Hydroxy-1-phenylbutyl)-6,6-dimethyl-3-[1-(trimethylsilyl)cyclobutanecarboxamido]-4,6-dihydropyrrolo[3,4-c]pyrazole-5(1H)-carboxamide] | ≤ 50 |  |
| CC(C)(O)[C@@H](NC(=O)N1Cc2c(NC(=O)C3([Si](C)(C)C)CCC3)n[nH]c2C1(C)C)c1ccccc1 [IV-171, (S)—N-(2-Hydroxy-2-methyl-1-phenylpropyl)-6,6-dimethyl-3-[1-(trimethylsilyl)cyclobutanecarboxamido]-4,6-dihydropyrrolo[3,4-c]pyrazole-5(1H)-carboxamide] | ≤ 50 |  |
| CC1(C)c2[nH]nc(NC(=O)C3([Si](C)(C)C)CCC3)c2CN1C(=O)[C@H](OC1CC1)c1ccccc1 [IV-1208, (R)—N-[5-(2-Cyclopropoxy-2-phenylacetyl)-6,6-dimethyl-1,4,5,6-tetrahydropyrrolo[3,4-c]pyrazol-3-yl]-1-(trimethylsilyl)cyclobutanecarboxamide] |  | ≤ 50 |
| CC1(C)c2[nH]nc(NC(=O)C3([Si](C)(C)C)CCC3)c2CN1C(=O)NC(c1ccccc1)C1(CO)CCC1 (centres unmarked) [IV-718, N-{[1-(Hydroxymethyl)cyclobutyl](phenyl)methyl}-6,6-dimethyl-3-[1-(trimethylsilyl)cyclobutanecarboxamido]-4,6-dihydropyrrolo[3,4-c]pyrazole-5(1H)-carboxamide] |  | ≤ 50 |
| COC(C(=O)N1Cc2c(NC(=O)C3([Si](C)(C)C)CCC3)n[nH]c2C1(C)C)c1cccc(F)c1 (centres unmarked) [IV-1404, N-{5-[2-(3-Fluorophenyl)-2-methoxyacetyl]-6,6-dimethyl-1,4,5,6-tetrahydropyrrolo[3,4-c]pyrazol-3-yl}-1-(trimethylsilyl)cyclobutanecarboxamide] |  | ≤ 50 |
| CCOC[C@@H](NC(=O)N1Cc2c(NC(=O)C3([Si](C)(C)C)CCC3)n[nH]c2C1(C)C)c1ccccc1 [IV-139, (S)—N-(2-Ethoxy-1-phenylethyl)-6,6-dimethyl-3-[1-(trimethylsilyl)cyclobutanecarboxamido]-4,6-dihydropyrrolo[3,4-c]pyrazole-5(1H)-carboxamide] | ≤ 50 |  |
| COC[C@@H](NC(=O)N1Cc2c(NC(=O)C3([Si](C)(C)C)CCC3)n[nH]c2C1(C)C)c1ccccc1 [IV-123, (S)—N-(2-Methoxy-1-phenylethyl)-6,6-dimethyl-3-[1-(trimethylsilyl)cyclobutanecarboxamido]-4,6-dihydropyrrolo[3,4-c]pyrazole-5(1H)-carboxamide] | ≤ 50 |  |
| CC1(C)c2[nH]nc(NC(=O)C3([Si](C)(C)C)CCC3)c2CN1C(=O)NCC(O)c1ccccc1 (centres unmarked) [IV-450, N-(2-Hydroxy-2-phenylethyl)-6,6-dimethyl-3-[1-(trimethylsilyl)cyclobutanecarboxamido]-4,6-dihydropyrrolo[3,4-c]pyrazole-5(1H)-carboxamide] | ≤ 50 |  |
| CC1(C)c2[nH]nc(NC(=O)C(C)(C)[Si](C)(C)C)c2CN1C(=O)N[C@H](CO)c1ccccc1 [II-114, (S)—N-(2-Hydroxy-1-phenylethyl)-6,6-dimethyl-3-[2-methyl-2-(trimethylsilyl)propanamido]-4,6-dihydropyrrolo[3,4-c]pyrazole-5(1H)-carboxamide] | ≤ 50 |  |
